Experimental data as given in patent US5773236A, “Assay for glutathiane transferase using polyhaloaryl-substituted reporter molecules” (Molecule Probes, Inc., priority 1997, dated 1998).

Legend:
β-galactosidase = assay: Glycosidase analysis in vitro (Example 60); type: biochemical; conditions: substrate 333 μM, room temperature, 20 minutes
Method: The stock reagents required are: 1) Compound 9 (Example 7) 5 mM in ethanol; 2) Reaction buffer: 0.3M potassium phosphate, 3 mM MgCl2 pH 7.5; 3) β-galactosidase (Boehringer-Mannheim), dissolved at 10 mg/mL in 0.05M potassium phosphate, pH 7; 4) Enzyme diluent: 0.01M Tris HCl, 0.01M MgCl2, 0.01M NaCl, 0.01M β-mercaptoethanol, pH 7.5. 130 μL of the reaction buffer is added to a series of rows and columns in a microplate. To each of the wells with reaction buffer is added 10 μL of the substrate solution. The enzyme stock solution is diluted to 1 mg/mL, 0.1 mg/mL, 10 μg/mL, 1 μg/mL, 0.1 μg/mL and 0 μg/mL. To the wells containing reaction buffer and substrate, 10 μL of each of the different concentration enzyme solutions is added. The wells containing 0 μg/mL enzyme serve as controls. The plate is allowed to incubate at room temperature for 20 minutes. Fluorescence of each well is determined using a 485 nm excitation filter, a 530 nm emission filter and gain setting of 40. Using the above conditions, as little as 6.7 ng/mL enzyme can be detected using the substrate at 333 μM concentration. The fluorescence response is linear until the enzyme concentration reaches ~6.7 μg/mL.

[1] = tested on: NIH-3T3 cells (lacZ negative); assay: β-galactosidase activity detection in cells by microscopy, lacZ negative (Example 61); type: cell-based; conditions: 50 nM, 37° C., 35 minutes
Method: (§1) NIH-3T3 cells (lacZ negative) and CRE BAG 2 cells (lacZ positive) are obtained from American Type Culture Collection Co., Rockville, Md. They are grown in a humidified atmosphere of 5% CO2 in D-MEM supplemented with 10% bovine calf serum, 50 μg/mL gentamycin, 300 μg/mL L-glutamine and 10 mM HEPES, pH 7.4. A 50 μM stock solution of Compound 9 is prepared in water: dimethylformamide (DMF) (1:1). NIH-3T3 and CRE BAG 2 cells are trypsinized, washed and suspended in D-MEM containing 10% BCS. 10 μL of the cell suspension is added to 0.989 mL of the same medium. 1 μL of the 50 μM substrate solution is added to the cells to obtain a final concentration of 50 nM. Incubation is carried out at 37° C. for 35 minutes. Cells are centrifuged to form a pellet, supernatant is discarded and cells are resuspended in D-MEM with 10% BCS. Cells are mounted on slides and observed by fluorescence microscopy.

[2] = tested on: CRE BAG 2 cells (lacZ positive); assay: β-galactosidase / lacZ detection in cells by microscopy, lacZ positive (Example 61); type: cell-based; conditions: 50 nM, 37° C., 35 minutes
Method: as §1

β-D-galactosidase = assay: Detection of β-D-galactosidase on a membrane blot (Example 64); type: biochemical; conditions: nitrocellulose, room temperature, 1 hour plus 30 minutes
Method: The reagents used are: 1) Compound 9, 5 mM in ethanol; 2) β-D-galactosidase, 10 mg/mL in 0.05M potassium phosphate, pH 7; 3) Enzyme diluent: 0.01M Tris, 0.01M MgCl2, 0.01M mercaptoethanol, 0.01M NaCl, 1% BSA, pH 7.5; 4) 1% BSA in PBS, pH 7.2; 5) Reaction buffer: 0.3M potassium phosphate, 3 mM MgCl2, pH 7.5; 6) Wash buffer: 20 mM Tris, 137 mM NaCl, 0.5% Tween 20, pH 7.5. A stock solution of β-galactosidase is diluted in enzyme diluent to obtain solutions with the following concentrations: 1 μg/μL, 0.1 μg/μL, 0.01 μg/μL, 1 ng/μL, 0.1 ng/μL and 0 ng/μL. 1 μL of each diluted solution is spotted on a two nitrocellulose membranes (1"×1"), pore size 0.45 μM, and dried immediately by blowing argon on the membranes. One of the membranes is blocked by treatment with 1% BSA in PBS for 20 minutes at room temperature. The following mixture is prepared: 4.95 mL of reaction buffer+[…] of Compound 9 stock solution. 2 mL of this solution is added to each of the blots and incubation is carried out at room temperature for 1 hour. The blots are washed once with 2 mL of wash buffer. 0.5 mL of the mixture described above is once again added to the blots and incubation is carried out at room temperature for 30 minutes. The blots are allowed to dry and an image is obtained by illuminating with reflected UV light at 254 nm. […]

For O=C1OC2(c3ccc(O[C@@H]4O[C@H](CO)[C@H](O)[C@H](O)[C@H]4O)cc3Oc3cc(O[C@@H]4O[C@H](CO)[C@H](O)[C@H](O)[C@H]4O)ccc32)c2ccc(NC(=O)c3c(F)c(F)c(F)c(F)c3F)cc21 [Compound 9, 5-(pentafluorobenzoylamino)fluorescein di-β-D-galactopyranoside], the “enzyme concentration up to which fluorescence response is linear” value (β-galactosidase) was ~ 6.7 μg/mL, the “lowest enzyme concentration detected” value (β-galactosidase) was 6.7 ng/mL and the “staining of cells, fluorescence microscopy” value [1] was “green fluorescent lysosomes with very little cytoplasmic background”. The “staining of cells, fluorescence microscopy” value [2] was “green fluorescent lysosomes with well-stained green fluorescent cytoplasm” and the “amount of enzyme detected” value (β-D-galactosidase) was ~ 100 ng.
